Data as given in patent US9126973B2, “Multiheteroaryl compounds as inhibitors of H-PGDS and their use for treating prostaglandin D2 mediated diseases” (Cayman Chemical Company, Incorporated, priority 2008, dated 2015).

What was measured:
H-PGDS [1] = target: T1, H-PGDS (Homo sapiens (Human), UniProt O60760); experiment: H-PGDS Inhibitor Enzyme Immunoassay (EIA); format: biochemical; conditions: 25 ng H-PGDS, 40 μM PGH2, 1 mM GSH; PGD2 quantified by EIA
Method: H-PGDS Inhibitor Enzyme Immunoassay
The assay detects and measures PGD2 generated by H-PGDS. The prostanoid product is quantified via enzyme immunoassay (EIA) using a specific PGD2 antibody.
The assay is carried out by the following steps: • 1. Inhibitor screening is performed in 100 mM Tris-HCl, pH 8.0 containing 1 mM GSH, 1 mM MgCl2, 4% inhibitor/DMSO, 40 μM PGH2 and 25 ng of PGDS in a total volume of 125 μL. • 2. A reaction mixture containing 100 mM Tris-HCl, pH 8.0, 1 mM GSH, 1 mM MgCl2, 25 ng H-PGDS and 4% inhibitor or DMSO (uninhibited reaction) is preincubated at 25° C. for 10 minutes. • 3. Reactions are initiated using 5 μL of PGH2 and quenched every 15 seconds for one minute. Reactions are quenched by taking 10 μL of reaction mixture and adding to 490 μL of 100 mM phosphate buffer containing 0.1% BSA, 400 mM NaCl, 1 mM EDTA, 20 mM FeCl2, 10% 1N HCl, and 0.01% azide to prevent the non-enzymatic formation of PGD2 from PGH2. The FeCl2 serves the purpose of reducing PGH2 to 12-HHT. (Quench buffer is kept on ice at all times). • 4. Quenched samples (5 μL) are further diluted 100 fold in 495 μL of 100 mM phosphate buffer containing 0.1% BSA, 400 mM NaCl, 1 mM EDTA, and 0.01% azide for the PGD2 EIA assay. (Dilution buffers are kept on ice at all times).
The final 5000 fold diluted samples are analyzed following the protocol outlined in Cayman Chemical's commercially available PGD2 EIA kit (Cat. #512021). 50 μL of diluted sample is analyzed at least in duplicate in the EIA assay and the amount of PGD2 formed is quantified using a standard curve.

H-PGDS [2] = target: T1, H-PGDS; experiment: H-PGDS Fluorescence Polarization Binding Assay (FPBA); conditions: H-PGDS-MBP fusion enzyme, fluorescent probe, reduced glutathione 5 mM, 60-90 minutes at room temperature, 96-well format
Method: H-PGDS Fluorescence Polarization Binding Assay This assay essentially is available from Cayman Chemical Company as Catalog item #600007. The test data reported for the aforementioned Examples (H-PGDS FPBA IC50) were generated using a 96-well, instead of the 384-well, format. […] Assays were performed in 96-well microtiter plates in 100 μL of total sample volume. Excitation and emission wavelengths appropriate for the employed detection analyte were used. […] Twelve clean microfuge tubes were labeled A1 through A12. […] Dimethyl sulfoxide (50 μL) was added to each of tubes A1 through A11. The HQL-79 control solution was serially diluted by removing 50 μL from tube A12 and placing it in tube A11 with subsequent thorough mixing of the contents of tube A11. Next, 50 μL was removed from tube A11 and was placed into tube A10 with subsequent thorough mixing of the contents of tube A10. This process was repeated for tubes A9 through A2. […] A test compound may be dissolved in DMSO, ethanol, or methanol at several concentrations when the titration endpoint is unknown. […] Assay cocktail (95 μL) was added to each plate well. DMSO (5 μL) from microfuge tube A1 was added to each plate well A1 and B1. Positive control solution (5 μL) from microfuge tube A2 was added to each plate well A2 and B2. Positive control solution (5 μL) from microfuge tube A3 was added to each plate well A3 and B3. This procedure was continued until all the positive control standard dilutions were aliquoted. Test compound solutions (5 μL) were added to the wells. […] The IC50 for a particular test compound was obtained by performing a full concentration titration versus a full concentration titration of positive control. Comparison of a single concentration of a test compound to the maximum binding well provided an assessment of the relative affinity of the test compound for H-PGDS-MBP. The plate was covered and incubated for 60-90 minutes at room temperature. The FP signal is stable for at least two hours. […] The measurements were taken in the fluorescent polarization mode with the z-height set to the middle of the well and the G-factor set to 1.13 on a Tecan Safire 2 reader.

[3] = background statement with literature references; cited from earlier work

T1 sequence (O60760 whole entry): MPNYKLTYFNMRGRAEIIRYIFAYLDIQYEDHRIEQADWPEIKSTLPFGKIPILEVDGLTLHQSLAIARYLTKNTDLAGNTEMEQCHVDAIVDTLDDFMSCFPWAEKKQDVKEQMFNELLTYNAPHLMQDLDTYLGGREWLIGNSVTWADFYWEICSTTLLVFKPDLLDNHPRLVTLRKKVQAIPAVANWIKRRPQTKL

| IC50 (H-PGDS [1]) [µM] | IC50 (H-PGDS [2]) [µM] | melting point [°C] | Structure (SMILES) | antiallergic and antiasthmatic activity in vivo [3] |
| --- | --- | --- | --- | --- |
| 0.023 | 0.15 | 258 | C(=C\c1ncc(-c2cnc(-c3ccccc3)nc2)[nH]1)/c1cccnc1 [Example 15, (E)-2-phenyl-5-(2-(2-(pyridin-3-yl)vinyl)-1H-imidazol-5-yl)pyrimidine] | – |
| 0.25 | 0.625 | 211 | Cn1c(-c2cnc(-c3ccccc3)nc2)cnc1-c1ccccc1 [Example 3, 5-(1-methyl-2-phenyl-1H-imidazol-5-yl)-2-phenylpyrimidine] | – |
| 0.084 | 1 | 280 to 282 | c1ccc(-c2ncc(-c3nnc(-c4ccccc4)[nH]3)cn2)cc1 [Example 49, 2-phenyl-5-(5-phenyl-4H-1,2,4-triazol-3-yl)pyrimidine] | – |
| 0.006 | 0.08 | 223 | c1ccc(CN2CCC(c3ncc(-c4cnc(-c5ccccc5)nc4)[nH]3)CC2)cc1 [Example 19, 5-(2-(1-benzylpiperidin-4-yl)-1H-imidazol-5-yl)-2-phenylpyrimidine] | – |
| 0.15 | 1 | 319 | c1ccc(-c2ncc(-c3csc(-c4cccnc4)n3)cn2)cc1 [Example 59, 4-(2-phenylpyrimidin-5-yl)-2-(pyridin-3-yl)thiazole] | – |
| 0.041 | 0.156 | 309 | Fc1cccc(-c2ncc(-c3cnc(-c4cccnc4)[nH]3)cn2)c1 [Example 11, 2-(3-fluorophenyl)-5-(2-(pyridin-3-yl)-1H-imidazol-5yl)pyrimidine] | – |
| – | > 20 | 170 | c1ccc(Cc2nc(-c3cnc(-c4ccccc4)nc3)cs2)cc1 [Example 60, 2-benzyl-4-(2-phenylpyrimidin-5-yl)thiazole] | – |
| 0.004 | 0.188 | 221 | Fc1cccc(-c2ncc(-c3cnc(-c4ccccc4)nc3)[nH]2)c1 [Example 8, 5-(2-(3-fluorophenyl)-1H-imidazol-5-yl)-2-phenylpyrimidine] | – |
| – | 1 | 322 to 333 | c1ccc(-c2ncc(-c3nnc(-c4cccnc4)[nH]3)cn2)cc1 [Example 50, 2-phenyl-5-(5-(pyridin-3-yl)-1H-1,2,4-triazol-3-yl)pyrimidine] | – |
| – | 1.3 | 299 | c1cncc(-c2ncc(-c3cnc(-c4cccnc4)[nH]3)cn2)c1 [Example 12, 2-(pyridin-3-yl)-5-(2-(pyridin-3-yl)-1H-imidazol-5-yl)pyrimidine] | – |
| – | 2.5 | 237 | c1ccc(-c2ncc(-c3nnn[nH]3)cn2)cc1 [Example 43, 2-phenyl-5-(1H-tetrazol-5-yl)pyrimidine] | – |
| 0.075 | 0.125 | 300 | c1ccc(-c2ncc(-c3cnc(-c4ccncc4)[nH]3)cn2)cc1 [Example 13, 2-phenyl-5-(2-(pyridin-4-yl)-1H-imidazol-5-yl)pyrimidine] | – |
| 0.053 | 0.125 | 262 | c1ccc(-c2ncc(-c3cnc(-c4ccccn4)[nH]3)cn2)cc1 [Example 9, 2-phenyl-5-(2-(pyridin-2-yl)-1H-imidazol-5-yl)pyrimidine] | – |
| 0.082 | 0.45 | 138 | Cc1nc(-c2ccccc2)[nH]c1-c1cnc(-c2ccccc2)nc1 [Example 4, 5-(4-methyl-2-phenyl-1H-imidazol-5-yl)-2-phenylpyrimidine] | – |
| – | 4 | 254 | c1ccc(Oc2ncc(-c3cnc(-c4ccccc4)[nH]3)cn2)cc1 [Example 38, 2-phenoxy-5-(2-phenyl-1H-imidazol-5-yl)pyrimidine] | – |
| 0.37 | 0.625 | 236 | c1ccc(Oc2ncc(-c3cnc(-c4cccnc4)[nH]3)cn2)cc1 [Example 40, 2-phenoxy-5-(2-(pyridin-3-yl)-1H-imidazol-4-yl)pyrimidine] | – |
| – | – | – | c1ccc(C(OC2CCN(CCCc3nnn[nH]3)CC2)c2ccccc2)cc1 [HQL-79] | antiallergic and antiasthmatic activity in vivo |
| – | > 20 | 214.4 to 216.1 | c1ccc(-c2ncc(-c3csc(-c4ccccc4)n3)cn2)cc1 [Example 48, 2-phenyl-4-(2-phenylpyrimidin-5-yl)thiazole] | – |
| 0.13 | 1.3 | – | CCOC(=O)c1cc(-c2cnc(Oc3ccccc3)nc2)[nH]n1 [Example 54, ethyl 5-(2-phenoxypyrimidin-5-yl)-1H-pyrazole-3-carboxylate] | – |
| – | 0.45 | 234 | O=C(c1cccnc1)N1CCC(c2nc(-c3cnc(-c4ccccc4)nc3)c[nH]2)CC1 [Example 20, (4-(4-(2-phenylpyrimidin-5-yl)-1H-imidazol-2-yl)piperidin-1-yl)(pyridin-3-yl)methanone] | – |
| 0.059 | 0.625 | 235 | c1ccc(Cc2ncc(-c3cnc(-c4ccccc4)nc3)[nH]2)cc1 [Example 14, 5-(2-benzyl-1H-imidazol-5-yl)-2-phenylpyrimidine] | – |
| 0.097 | 0.48 | 206 | c1ccc(-c2ccc(-c3cnc(-c4ccccc4)[nH]3)cn2)cc1 [Example 2, 2-phenyl-5-(2-phenyl-1H-imidazol-5-yl)pyridine] | – |
| 0.012 | 0.25 | 253 | c1ccc(-c2ncc(-c3cnc(-c4ccccc4)[nH]3)cn2)cc1 [Example 1, 2-phenyl-5-(2-phenyl-1H-imidazol-5-yl)pyrimidine] | – |
| 0.047 | 0.28 | 240 | Fc1cccc(-c2ncc(-c3cnc(-c4ccccc4)[nH]3)cn2)c1 [Example 6, 2-(3-fluorophenyl)-5-(2-phenyl-1H-imidazol-5-yl)pyrimidine] | – |
| – | 1.25 | 140 | c1ccc(-c2ncc(-c3cnc(C4CCCNC4)[nH]3)cn2)cc1 (racemic) [Example 22, (±)-2-phenyl-5-(2-(piperidin-3-yl)-1H-imidazol-5-yl)pyrimidine] | – |
| – | 5 | 216 | c1ccc(-c2ncc(-c3cnc[nH]3)cn2)cc1 [Example 5, 5-(1H-imidazol-5-yl)-2-phenylpyrimidine] | – |
| 0.42 | 0.65 | – | CN1CCN(C(=O)c2cc(-c3cnc(Oc4ccccc4)nc3)[nH]n2)CC1 [Example 57, (4-methylpiperazin-1-yl)(5-(2-phenoxypyrimidin-5-yl)-1H-pyrazol-3-yl)methanone] | – |
| – | 2.4 | 264 to 273 | Cl.c1ccc(-c2ncc(-c3cc[nH]n3)cn2)cc1 [Example 41, 2-phenyl-5-(1H-pyrazol-3-yl)pyrimidine hydrochloride] | – |
| 0.021 | 0.079 | 308 | c1ccc(-c2ncc(-c3cnc(-c4cccnc4)[nH]3)cn2)cc1 [Example 10, 2-phenyl-5-(2-(pyridin-3-yl)-1H-imidazol-5-yl)pyrimidine] | – |
